# System: excised porcine lenses
# Test: Protein oxidation (OxyBlot) in excised porcine lenses cultured under hyperoxic conditions mimicking post-vitrectomy oxygen levels
# Assay type: cell-based
# Procedure: To assess the ability of the antioxidant compositions including non-reducing sugars to reduce oxidative damage to an eye lens of a subject, trehalose, a non-reducing disaccharide, was applied to lenses being cultured under hyperoxic (high oxygen) conditions that mimic post-vitrectomy intravitreal oxygen levels. Briefly, six excised porcine lenses were cultured in M199 media with 4% porcine serum at 37° C. for 1 week to acclimate to culture conditions. Then, 3 lenses were exposed to media with 7.5% trehalose while three control lenses remained untreated. At regular intervals, incubated lenses were examined under a dissecting microscope against a background of black gridlines. The oxygen concentration was controlled to mimic post-vitrectomy conditions. After 10 days, each lens was analyzed for protein oxidation using the OxBlot Oxidized Protein Detection Kit (Chemicon, International, Billerica, MA) to quantify the ability of the gel application method to protect the lens.
# The method described above was used to compare the effect of a subject trehalose composition freely dispersed in the tissue culture media (FIG. 1, first bar) to a biogel composition that was described by Tezel et al. in WO2014081969A1 (“Compositions and methods for reducing oxidative damage”) and which includes trehalose within a polymer gel. […]
smiles,measurement,setting,value
"OC[C@H]1O[C@H](O[C@H]2O[C@H](CO)[C@@H](O)[C@H](O)[C@H]2O)[C@H](O)[C@@H](O)[C@@H]1O [trehalose, α,α-1,1-Trehalose]",amount of protein oxidation in the lens (in words),"administration of trehalose to the eye lens, ex vivo, FIG. 1",reduced an amount of protein oxidation in the lens
same,reduction in protein oxidation levels to,"trehalose composition freely dispersed in tissue culture media (7.5% trehalose), hyperoxic culture, 10 days, FIG. 1 bar 1",about 20%
